Results on 95 sequences are retold here after the OligoGym collection.

“And” between values parts separate entries of the source, which are not always exact repeats. Equal entries are not always repeated. After the bases stand the sugars from the 5' end (letter, count) and the backbone: PS all phosphorothioate, else s phosphorothioate and o phosphodiester by linkage. Methylation of C is not given here. e = 2'-O-(2-methoxyethyl) (MOE); k = constrained ethyl (cEt); d = 2'-deoxy (DNA)

For the first data set, the target named is SOD1. To be noted: ASO, HepG2, 0.1875 µM.
As to “AACAGATGAGTTAAGGG (sugars e2 k2 d8 k2 e3, PS)”, the target mRNA inhibition was found to be 32%.

The same data set, now with this note: ASO, HepG2, 0.75 µM.
Turning to “AACAGATGAGTTAAGGG (sugars e2 k2 d8 k2 e3, PS)”, the target mRNA inhibition amounted to 55%.

The data set is the same for the next values; noted with them: ASO, HepG2, 3 µM.
Regarding “AAATACAGGTCATTGAA (sugars e3 k2 d7 k2 e3, PS)”, the target mRNA inhibition was 2%.
Still for that read-out and setting: the figure for “AAATCTTCCAAGTGATC (sugars e3 k2 d7 k2 e3, PS)” is 4%.
In the case of “AACAGATGAGTTAAGGG (sugars e2 k2 d8 k2 e3, PS)”, the target mRNA inhibition was 78%.
Still for that read-out and setting: the figure for “AACTATACAAATCTTCC (sugars e3 k2 d7 k2 e3, PS)” is 28%; for “AAGATTACAGTGTTTAA (sugars e3 k2 d7 k2 e3, PS)” it is 34%; for “AAGGGAATGTTTATTGG (sugars e3 k2 d7 k2 e3, PS)” it is 2%.

The same data set, now with this note: ASO, HepG2, 4 µM.
“AACAGATGAGTTAAGGG (sugars e2 k2 d8 k2 e3, PS)”: the target mRNA inhibition worked out at 73%.
The same measure, in the same setting: the figure for “AACCAGCACCCCGTCTCCGC (sugars e5 d10 e5, PS)” is 11%.

The data set is the same for the next values; noted with them: ASO, HepG2, 5 µM.
Take “AAATACAGGTCATTGAA (sugars e2 k2 d8 k2 e3, PS)”: the target mRNA inhibition turned out to be 28%.
In the case of “AACTATACAAATCTTCC (sugars e2 k2 d8 k2 e3, PS)”, the target mRNA inhibition is 60%.
Regarding “AAGTGCCATACAGGGTT (sugars e2 k2 d9 k2 e2, PS)”, the target mRNA inhibition came to 21%.
The same measure, in the same setting: the figure for “AAGTTTAATACCCATCT (sugars e2 k2 d8 k2 e3, PS)” is 54%; for “AAGTTTAATACCCATCT (sugars e2 k2 d9 k2 e2, PS)” it is 59%; for “AATAAGTGCCATACAGG (sugars e2 k2 d8 k2 e3, PS)” it is 40%.
On to “AATACCCATCTGTGATTTAA (sugars e5 d10 e5, PS)”, for which the target mRNA inhibition worked out at 0%.

Still in this data set, the particulars now being: ASO, HepG2, 12 µM.
As to “AACAGATGAGTTAAGGG (sugars e2 k2 d8 k2 e3, PS)”, the target mRNA inhibition was determined as 93%.

The target of a further data set is MALAT1. To be noted: ASO, A431, 0.005 µM.
Take TGAAAACCCACTCTTG (sugars k3 d10 k3, PS): the target mRNA inhibition came to 0%.
Turning to TGAAAACTCCCCCCCG (sugars k3 d10 k3, PS), the target mRNA inhibition was determined as 21%.
Still for that read-out and setting: the figure for TGAACTATCACAATTC (sugars k3 d10 k3, PS) is 24%; for TGAAGCATACCTTAAC (sugars k3 d10 k3, PS) it is 31%.
As to TGAAGTCAAGACAACT (sugars k3 d10 k3, PS), the target mRNA inhibition is 1%.
Consider TGACAAGCAATTAACT (sugars k3 d10 k3, PS), for which the target mRNA inhibition turned out to be 28%.
For TGACTGAATATGAACC (sugars k3 d10 k3, PS), the target mRNA inhibition came out at 41%.
Turning to TGAGGGACAGTAGGTA (sugars k3 d10 k3, PS), the target mRNA inhibition was determined as 18%.
Still for that read-out and setting: the figure for TGAGTATGCTGATAAA (sugars k3 d10 k3, PS) is 41%; for TGAGTGGTTTTATCTA (sugars k3 d10 k3, PS) it is 7%.
For TGATCTGACTTTGTAT (sugars k3 d10 k3, PS), the target mRNA inhibition was found to be 47%.
Same read-out and setting: the figure for TGCAAGTTAAACTTAT (sugars k3 d10 k3, PS) is 25%.
As for TGCAGGCAAATTAATG (sugars k3 d10 k3, PS), the target mRNA inhibition turned out to be 11%.
The same measure, in the same setting: the figure for TGCCAACTAATTGCCA (sugars k3 d10 k3, PS) is 23%.
The same measure, in the same setting: the figure for TGCCAACTTGGAAGTT (sugars k3 d10 k3, PS) is 32%; for TGCCACAGGAAGGCTC (sugars k3 d10 k3, PS) it is -10%.
Still for that read-out and setting: the figure for TGCCTTAAAGTTACAT (sugars k3 d10 k3, PS) is 19%; for TGCGCTTAAGAGGGCA (sugars k3 d10 k3, PS) it is 7%; for TGCTCGCCTCCTCCGT (sugars k3 d10 k3, PS) it is 34%.
Turning to TGCTTACACACAACTG (sugars k3 d10 k3, PS), the target mRNA inhibition turned out to be 35%.
For the sequence TGGAACTTGAATGCAA (sugars k3 d10 k3, PS), the target mRNA inhibition came out at 10%.
Take TGGCCCTTCGCATACG (sugars k3 d10 k3, PS): the target mRNA inhibition came out at 28%.
The same measure, in the same setting: the figure for TGGCGGACTTTCTCCC (sugars k3 d10 k3, PS) is 9%; for TGGTCTAGGATCCTCT (sugars k3 d10 k3, PS) it is -15%.
With TGGTTATAGCTTGACA (sugars k3 d10 k3, PS), the target mRNA inhibition was 82% and 95%.
Regarding TGTAAGAATTAAGACC (sugars k3 d10 k3, PS), the target mRNA inhibition was 18%.
The same measure, in the same setting: the figure for TGTATATAGTTCAAAG (sugars k3 d10 k3, PS) is 9%; for TGTCTAAGAGGTTATT (sugars k3 d10 k3, PS) it is 10%; for TGTTAACAATTTGCAG (sugars k3 d10 k3, PS) it is 20%.
On the same count and under the same terms, the figure for TGTTAAGACCATCCCA (sugars k3 d10 k3, PS) is 9%; for TGTTAAGAGAAGCCCA (sugars k3 d10 k3, PS) it is 2%; for TGTTACACCTTGAGTC (sugars k3 d10 k3, PS) it is 37%.
Same read-out and setting: the figure for TTAAACGGGTCATCAA (sugars k3 d10 k3, PS) is 0%.
For TTAAAGAGTGTTCGCA (sugars k3 d10 k3, PS), the target mRNA inhibition is 59% and 39%.
Turning to TTAACCAACTTCCCCT (sugars k3 d10 k3, PS), the target mRNA inhibition was 43%.
With TTAAGACCATCCCAAA (sugars k3 d10 k3, PS), the target mRNA inhibition turned out to be 5%.
The same measure, in the same setting: the figure for TTAATGCACTGGTACA (sugars k3 d10 k3, PS) is 22%.
On to TTACACCTTGAGTCAT (sugars k3 d10 k3, PS), for which the target mRNA inhibition was 21%.
The same measure, in the same setting: the figure for TTACACTGCTCTGGGT (sugars k3 d10 k3, PS) is 2%; for TTACAGAAGTCTCGGG (sugars k3 d10 k3, PS) it is 11%.
The same measure, in the same setting: the figure for TTACATGTTCCCACCC (sugars k3 d10 k3, PS) is 19%; for TTACCAACCACTCGCT (sugars k3 d10 k3, PS) it is 2%; for TTACCTTGAAACCGAT (sugars k3 d10 k3, PS) it is 31%.
On the same count and under the same terms, the figure for TTACTGGTTTAAGTTG (sugars k3 d10 k3, PS) is 24%.
Take TTATAATAGAGCTACT (sugars k3 d10 k3, PS): the target mRNA inhibition came out at 4%.
For the sequence TTATAGACGGAGAACA (sugars k3 d10 k3, PS), the target mRNA inhibition was found to be 8%.
For TTATAGCTTGACAAGC (sugars k3 d10 k3, PS), the target mRNA inhibition is 37%.
Take TTATCAATTCACCAAG (sugars k3 d10 k3, PS): the target mRNA inhibition was 25%.
In the case of TTATCTGTTAACAGCT (sugars k3 d10 k3, PS), the target mRNA inhibition was found to be 31%.
Consider TTATGCTTATTCCCCA (sugars k3 d10 k3, PS), for which the target mRNA inhibition was 75% and 85%.
Same read-out and setting: the figure for TTATGGATCATGCCCA (sugars k3 d10 k3, PS) is 28%.
With TTATTCCCCAATGGAG (sugars k3 d10 k3, PS), the target mRNA inhibition turned out to be 18%.
For TTCAACTGGAAGCTCC (sugars k3 d10 k3, PS), the target mRNA inhibition was 58% and 57%.
For the sequence TTCATTACCCCAACTA (sugars k3 d10 k3, PS), the target mRNA inhibition came to 42%.
With TTCCGCTCAAATCCTG (sugars k3 d10 k3, PS), the target mRNA inhibition came to 35%.
Still for that read-out and setting: the figure for TTCGCCTTCCCGTACT (sugars k3 d10 k3, PS) is 63%; for TTCTAGCTTCAAGTAT (sugars k3 d10 k3, PS) it is 25%; for TTCTGAACCGGAGCAG (sugars k3 d10 k3, PS) it is 23%.
As to TTCTGATAACGAAGAG (sugars k3 d10 k3, PS), the target mRNA inhibition was 8%.
Turning to TTGAACCCCGTCCTGG (sugars k3 d10 k3, PS), the target mRNA inhibition was 12%.
Turning to TTGAAGCATACCTTAA (sugars k3 d10 k3, PS), the target mRNA inhibition came out at 28%.
In the case of TTGAGATGGACATTGC (sugars k3 d10 k3, PS), the target mRNA inhibition is 87% and 72%.
As to TTGATCCCAACTCATC (sugars k3 d10 k3, PS), the target mRNA inhibition was 33%.
For TTGCCCCAACACTGAA (sugars k3 d10 k3, PS), the target mRNA inhibition turned out to be 7%.
Turning to TTGCCCGCTTTCCCCC (sugars k3 d10 k3, PS), the target mRNA inhibition turned out to be 19%.
Regarding TTGCCGACCTCACGGA (sugars k3 d10 k3, PS), the target mRNA inhibition turned out to be 30%.
Still for that read-out and setting: the figure for TTGCTCGCTTGCTCCT (sugars k3 d10 k3, PS) is 40%; for TTGGTTACCAATAATT (sugars k3 d10 k3, PS) it is 24%.
On to TTGTGGTTATAGCTTG (sugars k3 d10 k3, PS), for which the target mRNA inhibition was 68% and 93%.
For the sequence TTGTTCGAGAAATCGG (sugars k3 d10 k3, PS), the target mRNA inhibition turned out to be 5%.
The same measure, in the same setting: the figure for TTTAAAAAGGCTCGAT (sugars k3 d10 k3, PS) is 28%; for TTTAAAAGATCGCCTT (sugars k3 d10 k3, PS) it is 50%.
With TTTAAACGGGTCATCA (sugars k3 d10 k3, PS), the target mRNA inhibition was determined as 10%.
Take TTTAAGGTTGCATCTG (sugars k3 d10 k3, PS): the target mRNA inhibition turned out to be 41%.
With TTTACTTGCCAACAGA (sugars k3 d10 k3, PS), the target mRNA inhibition was 27%.
Still for that read-out and setting: the figure for TTTACTTTCCATTACG (sugars k3 d10 k3, PS) is 16%.
The same measure, in the same setting: the figure for TTTATAGACCCCTGAC (sugars k3 d10 k3, PS) is 22%; for TTTCCCCAATCAAGAT (sugars k3 d10 k3, PS) it is -4%.
On to TTTGGCATATGCAGAT (sugars k3 d10 k3, PS), for which the target mRNA inhibition was determined as 24%.
Regarding TTTTACCAACCACTCG (sugars k3 d10 k3, PS), the target mRNA inhibition came out at 31%.
For the sequence TTTTAGTCACTGGATA (sugars k3 d10 k3, PS), the target mRNA inhibition was 45%.
